Assay results from US20070128217A1 (priority 2003, published 2007).

How the values were obtained:
[1] = tested on: rabbit serum obtained by immunizing a rabbit with the SARS-CoV strain Frankfurt 1; assay type: binding; parameters: Binding of a rabbit serum to linear peptides / Binding of a rabbit serum to looped peptides / Rabbit serum linear peptides / Rabbit serum looped peptides / Binding of a rabbit serum to linear peptides of protein N of SARS-CoV Urbani (Rabbit serum linear peptides) / Binding of a rabbit serum to looped/cyclic peptides of protein N of SARS-CoV Urbani (Rabbit serum looped peptides): unit not given here
[2] = tested on: antibodies in sera from SARS patients (sera 1a, 1b, 2, 6, 37, 62, London, SARS-yellow, SARS-green); assay type: binding, human; parameters: Binding of serum 6 to linear peptides of protein X1 of SARS-CoV Urbani / Binding of serum 37 to linear peptides of protein X1 of SARS-CoV Urbani / Binding of serum 6 to looped/cyclic peptide (PEPSCAN-ELISA) / Binding of serum 37 to looped/cyclic peptide (PEPSCAN-ELISA) / Binding of serum 37 to looped/cyclic peptides of protein X1 of SARS-CoV Urbani / Binding of serum 6 to linear peptides of protein X2 / Binding of serum 37 to linear peptides of protein X2 / Binding of serum 37 to looped/cyclic peptides of protein X2 of SARS-CoV Urbani / Binding of serum 6 to linear peptides of protein M of SARS-CoV Urbani / Binding of serum 37 to linear peptides of protein M of SARS-CoV Urbani / Binding of serum 6 to looped/cyclic peptides of protein M of SARS-CoV Urbani / Binding of serum 37 to looped/cyclic peptides of protein M of SARS-CoV Urbani / Binding of serum 6 to linear peptides of protein X3 of SARS-CoV Urbani / Binding of serum 37 to linear peptides of protein X3 of SARS-CoV Urbani / Binding of serum 37 to looped/cyclic peptides of protein X3 of SARS-CoV Urbani / Binding of serum 6 to linear peptides of protein X4 of SARS-CoV Urbani / Binding of serum 37 to linear peptides of protein X4 of SARS-CoV Urbani / Binding of serum 37 to looped/cyclic peptides of protein X4 of SARS-CoV Urbani / Binding of serum 6 to linear peptides of protein X5 of SARS-CoV Urbani / Binding of serum 37 to linear peptides of protein X5 of SARS-CoV Urbani / Binding of serum 37 to looped/cyclic peptides of protein X5 of SARS-CoV Urbani / Binding of serum 6 to linear peptides of protein N of SARS-CoV Urbani / Binding of serum 37 to linear peptides of protein N of SARS-CoV Urbani / Binding of serum 6 to linear peptide (PEPSCAN-ELISA) / Binding of serum 1a to looped/cyclic peptides of protein N of SARS-CoV Urbani / Binding of serum 1b to looped/cyclic peptides of protein N of SARS-CoV Urbani / Binding of serum 2 to looped/cyclic peptides of protein N of SARS-CoV Urbani / Binding of serum 6 to looped/cyclic peptides of protein N of SARS-CoV Urbani / Binding of serum 37 to looped/cyclic peptides of protein N of SARS-CoV Urbani / Binding of serum 62 to looped/cyclic peptides of protein N of SARS-CoV Urbani / Binding of serum London to looped/cyclic peptides of protein N of SARS-CoV Urbani / Binding of serum SARS-green to looped/cyclic peptides of protein N of SARS-CoV Urbani: unit not given here
[3] = tested on: control sera (pooled serum of ten healthy LUMC hospital workers; commercial negative donor pooled serum from the Dutch bloodbank); assay type: binding, human; parameters: Binding of Control serum LUMC to linear peptides / Binding of Control serum Blood-bank to linear peptides / Binding of Control serum LUMC to looped peptides / Binding of Control Serum Blood-Bank to Looped peptides / Binding of Control serum LUMC to linear peptides of the protein M of SARS-CoV Urbani / Binding of Control serum Blood-bank to linear peptides of the protein M of SARS-CoV Urbani / Binding of Control serum LUMC to looped peptides of the protein M of SARS-CoV Urbani / Binding of Control Serum Blood-Bank to Looped peptides of the protein M of SARS-CoV Urbani: unit not given here

RLLACLCKHKKVSTN
0.9: Binding of Control serum Blood-bank to linear peptides [3]
recognized in linear form: Recognition of the peptide by sera of SARS-CoV infected individuals, and form (linear, looped/cyclic) in which it is recognized [2]
0.5: Binding of serum 62 to looped/cyclic peptides of protein X2 of SARS-CoV Urbani [2]
0.3: Binding of a rabbit serum to linear peptides [1] | Binding of serum 1a to looped/cyclic peptides of protein X2 of SARS-CoV Urbani [2] | Binding of serum 2 to looped/cyclic peptides of protein X2 of SARS-CoV Urbani [2] | Binding of serum 6 to looped/cyclic peptides of protein X2 of SARS-CoV Urbani [2] | Binding of serum 37 to looped/cyclic peptides of protein X2 of SARS-CoV Urbani [2] | Binding of serum SARS-green to looped/cyclic peptides of protein X2 of SARS-CoV Urbani [2] | Binding of Control Serum Blood-Bank to Looped peptides [3]
0.2: Binding of serum 1b to looped/cyclic peptides of protein X2 of SARS-CoV Urbani [2] | Binding of serum London to looped/cyclic peptides of protein X2 of SARS-CoV Urbani [2]
0.4: Binding of a rabbit serum to looped peptides [1] | Binding of serum SARS-yellow to looped/cyclic peptides of protein X2 of SARS-CoV Urbani [2] | Binding of Control serum LUMC to looped peptides [3]
0.7: Binding of Control serum LUMC to linear peptides [3]

LVFLILCFTIKRKTE
0.4: Binding of serum 1b to looped/cyclic peptides of protein X4 of SARS-CoV Urbani [2] | Binding of serum London to looped/cyclic peptides of protein X4 of SARS-CoV Urbani [2]
0.5: Rabbit serum linear peptides [1] | Binding of serum 2 to linear peptides of protein X4 of SARS-CoV Urbani [2]
0.8: Binding of serum 62 to linear peptides of protein X4 of SARS-CoV Urbani [2] | Binding of serum London to linear peptides of protein X4 of SARS-CoV Urbani [2] | Binding of Control Serum Blood-Bank to Looped peptides [3] | Binding of Control serum Blood-bank to linear peptides [3]
0.2: Binding of serum SARS-green to looped/cyclic peptides of protein X4 of SARS-CoV Urbani [2]
0.7: Binding of serum 1a to linear peptides of protein X4 of SARS-CoV Urbani [2] | Binding of serum 1a to looped/cyclic peptides of protein X4 of SARS-CoV Urbani [2] | Binding of serum 6 to linear peptides of protein X4 of SARS-CoV Urbani [2] | Binding of serum 6 to looped/cyclic peptides of protein X4 of SARS-CoV Urbani [2] | Binding of serum 37 to linear peptides of protein X4 of SARS-CoV Urbani [2] | Binding of serum 62 to looped/cyclic peptides of protein X4 of SARS-CoV Urbani [2] | Binding of serum SARS-green to linear peptides of protein X4 of SARS-CoV Urbani [2] | Binding of serum SARS-yellow to looped/cyclic peptides of protein X4 of SARS-CoV Urbani [2]
0.6: Rabbit serum looped peptides [1] | Binding of serum 1b to linear peptides of protein X4 of SARS-CoV Urbani [2] | Binding of serum 2 to looped/cyclic peptides of protein X4 of SARS-CoV Urbani [2] | Binding of serum 37 to looped/cyclic peptides of protein X4 of SARS-CoV Urbani [2] | Binding of serum SARS-yellow to linear peptides of protein X4 of SARS-CoV Urbani [2] | Binding of Control serum LUMC to linear peptides [3] | Binding of Control serum LUMC to looped peptides [3]

QIHTIDGSSGVANPA
0.2: Binding of serum 6 to looped/cyclic peptides of protein X1 of SARS-CoV Urbani [2] | Binding of serum London to looped/cyclic peptides of protein X1 of SARS-CoV Urbani [2] | Binding of serum SARS-green to looped/cyclic peptides of protein X1 of SARS-CoV Urbani [2] | Binding of Control Serum Blood-Bank to Looped peptides [3]
0.4: Binding of serum 1a to looped/cyclic peptides of protein X1 of SARS-CoV Urbani [2] | Binding of serum 2 to looped/cyclic peptides of protein X1 of SARS-CoV Urbani [2] | Binding of serum 37 to looped/cyclic peptides of protein X1 of SARS-CoV Urbani [2] | Binding of serum SARS-green to linear peptides of protein X1 of SARS-CoV Urbani [2] | Binding of Control serum LUMC to looped peptides [3]
0.6: Binding of serum 1a to linear peptides of protein X1 of SARS-CoV Urbani [2] | Binding of serum 2 to linear peptides of protein X1 of SARS-CoV Urbani [2] | Binding of serum 62 to linear peptides of protein X1 of SARS-CoV Urbani [2] | Binding of Control serum Blood-bank to linear peptides [3] | Binding of Control serum LUMC to linear peptides [3]
0.3: Binding of a rabbit serum to looped peptides [1] | Binding of serum 1b to looped/cyclic peptides of protein X1 of SARS-CoV Urbani [2] | Binding of serum 62 to looped/cyclic peptides of protein X1 of SARS-CoV Urbani [2] | Binding of serum London to linear peptides of protein X1 of SARS-CoV Urbani [2] | Binding of serum SARS-yellow to linear peptides of protein X1 of SARS-CoV Urbani [2]
0.1: Binding of a rabbit serum to linear peptides [1] | Binding of serum SARS-yellow to looped/cyclic peptides of protein X1 of SARS-CoV Urbani [2]
0.5: Binding of serum 1b to linear peptides of protein X1 of SARS-CoV Urbani [2] | Binding of serum 6 to linear peptides of protein X1 of SARS-CoV Urbani [2]
0.7: Binding of serum 37 to linear peptides of protein X1 of SARS-CoV Urbani [2]
